Source: patent publication US6486169B1, “Botanical drug for treatment and prevention of alzhimer's disease” (priority 2002, dated 2002)
Marks after values point to notes of the source that are not given here.

What was measured:
[1] = test system: N2a neuroblastoma cells exposed to Aβ; assay: Viability of N2a neuroblastoma cells exposed to Alzheimer amyloid β protein; assay type: cell-based; settings: 50 μm Aβ for 24 hours, HUE 50 μg/ml, βA alone 35.4, normal 97.5
Excerpt: In AD, the protein forms aggregates of insoluble β-pleated sheets of fibrillar βA protein(amyloid). The conformational change from soluble to fibrillar forms seems to be a spontaneous event. The fibrillization is increased with higher concentrations of βA and with the longer forms of βA, so any production of larger amounts of βA than normal or production of the larger, less soluble forms of βA will tend to increase plaque formation. Once the βA plaque has started to form, other molecules can interact with the nascent plaque to produce eventually the mature plaque with its associated areas of cell death. In present study, effect of HUE on neuroblastoma cells exposed to the Alzheimer amyloid β protein and Aβ was examined.
N2a neuroblastoma cells were cultured and then exposed to 50 μm Aβ for 24 hours.
Concentration of HUE was 50 μg/ml. Cells viability determined by fluorescent staining, iodide and the trypan blue exclusion methods were used in experiments.

[2] = test system: male mice of PBA/2 strains; assay: Effect on memory (1): complex learning measures and memory in mice; assay type: in vivo; settings: injected, normal = 100
Procedure: Four months of male mice of PBA/2 strains used in experiments. […] Mice of HUE group were injected 0.1, 0.5 and 1.0 mg/kg of HUE. The control group was injected saline. Complex learning measures and memory were determined in experiments. (Reference see “Mammalian Models for Research on Aging”, pp 23-180, edited by Committee on Animal Models for Research on Aging, Institute of Laboratory Animal resources, division of Biological Sciences and Assembly of Life Science, published by National Academy Press, Washington, D.C., 1981). Normal animals injected by saline. Control animals injected by anisodine. Anisodine caused mistake of memory.

[3] = test system: male mice of PBA/2 strains; assay: Effect on memory (2): anisodine-caused mistake of memory; assay type: in vivo; settings: anisodine model, dose 50 mg/kg each (50 + 50 for combination), control 38.5 ± 4.0, normal 5.0 ± 1.2
Procedure: Four months of male mice of PBA/2 strains used in experiments. […] The control group was injected saline. Complex learning measures and memory were determined in experiments. (Reference see “Mammalian Models for Research on Aging”, pp 23-180, edited by Committee on Animal Models for Research on Aging, Institute of Laboratory Animal resources, division of Biological Sciences and Assembly of Life Science, published by National Academy Press, Washington, D.C., 1981). Normal animals injected by saline. Control animals injected by anisodine. Anisodine caused mistake of memory.

[4] = test system: brain protein synthesis; assay: Brain protein synthesis, (14C) leucine incorporation in cell free brain homogenate; assay type: in vivo, mice of DBA/2 strains; settings: mice, injected 1.0 mg/kg each, control 901
Procedure: It is known that an age-dependent decline in animal brain protein synthesis. The decreased incorporation of amino acids into proteins can be observed in vitro including brain slices, brain cell suspensions, cell free brain homogenate preparations from older animals. Four months of male mice of DBA/2 strains used in experiment. Mice of HUE group injected HUE and dose was 0.1, 0.5 and 1.0 mg/kg. Mice of control group were injected by same value of saline. Mice killed and brain was rapidly removed. Cell free brain homogenate preparations used in experiment. (^14C) leucine mixed with homogenate suspension was incubated at 37° C. Homogenate precipitated with 10% trichloroacetic acid (TCA) and filtered onto glass fiber filters. The filters were washed with phosphate-buffered saline and placed in scintillation vials 10 ml of scintillation solution (which containing […]) were added to digested solution and determined at LSC and radioactive emissions were counted.

[5] = test system: superoxide anion of pig brain; assay: Postischemic SOD-inhibitable NBT reduction (superoxide anion generation) in pig brain; assay type: in vivo; settings: piglets, ischemia-reperfusion, pretreated with HUE 0.5 mg/kg; ischemia-reperfusion control 12.9 ± 2.0, normal 2.8 ± 0.3
Procedure: Reperfusion injury after prolonged ischemia appeared to oxygen species of cerebral. The superoxide dismutase (SOD)-inhibitable nitroblue tetrazolium (NBT) reduction was determined as an index of superoxide anion generation in pig brain. In present study, effect of HUE on postischemic SOD-inhibitable NBT reduction was determined.
Piglets (1 kg) of either sex were anesthetized Anesthesia was maintained with α-chloralose. A catheter was inserted into a femoral artery to record blood pressure and to sample for blood gases and pH. Another catheter was placed in a femoral vein for injection of drugs. The trachea was cannulated, and the piglets were ventilated with room air. Body temperature was maintained at 37-38° C. with a water-circulating heating pad. Total cerebral ischemia was performed.
SOD-inhibitable NBT reduction was determined as an index of superoxide anion production. In control group, the piglets treated with vehicle (CSF). In treatment group, the piglets pretreated with HUE (0.5 mg/kg). SOD-inhibitable NBT reduction was determined for 20 minutes. For analysis, the slices were minced and homogenized in 1 N NaOH and 0.1% sodium dodecyl sulfate, the mixture centrifuged at 20,000 g for 20 min, the resulting supernatant discarded, and the pellet resuspended in 3 ml pyridine. […] The concentration of formazan in the resulting solution was determined spectrophotometrically at 515 nm.

[6] = test system: Ca++ concentration of brain cells; assay: Ca++ concentration of brain cell; assay type: in vivo; settings: control 112
Procedure: Method of animal is as same as example 7.
Ca^++ concentration of brain cell was determined.

[7] = test system: LTP in CAI area of brain; assay: Long-term potentiation (LTP) by electro-physiological method; assay type: in vivo; settings: control 8
Excerpt: The long-term potentiation (LTP) is model of information stored in brain. LTP is as an index determined by electro-physiological method and express as mv in CAI area of brain.

[8] = test system: DA in brain; assay: Concentration of dopamine (DA) in brain; assay type: in vivo; settings: 10 mg/kg each; control 880 ± 97
Excerpt: The effect of CLE and HUE on concentration of dopanmine (DA) was examined. The method of animal is as same as mentioned previously.

[9] = test system: RNA synthesis of brain cells; assay: RNA synthesis of brain cells, 3H-U incorporation in cell free brain homogenate; assay type: in vivo, mice of DBA/2 strains; settings: mice, injected 1.0 mg/kg, control (saline) 1280
Procedure: It is known that decline RNA content in cortical and cerebral cortex of AD. RNA of brain cell was determined.
Four months of male mice of DBA/2 strains used in experiment. Mice of treatment group injected HUE or CLE (dose was 1.0 mg/kg). Mice of control group were injected by same value of saline. Mice killed and brain was rapidly removed. Cell free brain homogenate preparations used in experiment. 0.5 μC ^3H-U (20 μCi/mM) was mixed with 1 ml homogenate suspension was incubated at 37° C. Homogenate precipitated with 10% trichloroacetic acid (TCA) and filtered onto glass fiber filters. The filters were washed with phosphate-buffered saline and placed in scintillation vials 10 ml of scintillation solution (which containing […]) were added to digested solution and determined at LSC and radioactive emissions were counted.

| Molecule | Cells viability (%) [1] | Increasing memory (%) ([2]; 0.1 mg/kg) | Increasing memory (%) ([2]; 0.5 mg/kg) | Increasing memory (%) ([2]; 1.0 mg/kg) | Number of mistake [3] | CPM ((14C) leucine into protein) [4] [CPM] | Pmol NBT/mm^2, 20 min (SOD-inhibitable NBT reduction) [5] | Ca^++ [6] [µmol/L] | LTP (mv in CAI) [7] [mv] | DA (ng/g brain) [8] [ng/g brain] | CPM (3H-U into RNA) [9] [CPM] |
| --- | --- | --- | --- | --- | --- | --- | --- | --- | --- | --- | --- |
| C/C=C1\[C@H]2C=C(C)C[C@]1(N)c1ccc(=O)[nH]c1C2 [HUE, Huperzine] | 80.2* % | 150 | 210 | 350 | *10.8 ± 1.5 | 2640 | 4.2 ± 0.5 Pmol NBT/mm^2, 20 min | 160 | 10 | 1280 ± 120 | 1860 |
| Clausenamide [CLE] | 70.5* % |  |  |  | *11.2 ± 2.0 | 1580 |  | 220 | 13 | 1560 ± 102 | 1540 |
